Laboratory results published in US11332459B2 (TEIJIN PHARMA LIMITED, priority 2017, dated 2022).
Where a name gives a salt, the structure may show the parent alone.

Target: T1, human TRPC6 (Homo sapiens, UniProt Q9Y210)
T1 construct: expressed in transfected cells
T1 sequence (Q9Y210 1-931): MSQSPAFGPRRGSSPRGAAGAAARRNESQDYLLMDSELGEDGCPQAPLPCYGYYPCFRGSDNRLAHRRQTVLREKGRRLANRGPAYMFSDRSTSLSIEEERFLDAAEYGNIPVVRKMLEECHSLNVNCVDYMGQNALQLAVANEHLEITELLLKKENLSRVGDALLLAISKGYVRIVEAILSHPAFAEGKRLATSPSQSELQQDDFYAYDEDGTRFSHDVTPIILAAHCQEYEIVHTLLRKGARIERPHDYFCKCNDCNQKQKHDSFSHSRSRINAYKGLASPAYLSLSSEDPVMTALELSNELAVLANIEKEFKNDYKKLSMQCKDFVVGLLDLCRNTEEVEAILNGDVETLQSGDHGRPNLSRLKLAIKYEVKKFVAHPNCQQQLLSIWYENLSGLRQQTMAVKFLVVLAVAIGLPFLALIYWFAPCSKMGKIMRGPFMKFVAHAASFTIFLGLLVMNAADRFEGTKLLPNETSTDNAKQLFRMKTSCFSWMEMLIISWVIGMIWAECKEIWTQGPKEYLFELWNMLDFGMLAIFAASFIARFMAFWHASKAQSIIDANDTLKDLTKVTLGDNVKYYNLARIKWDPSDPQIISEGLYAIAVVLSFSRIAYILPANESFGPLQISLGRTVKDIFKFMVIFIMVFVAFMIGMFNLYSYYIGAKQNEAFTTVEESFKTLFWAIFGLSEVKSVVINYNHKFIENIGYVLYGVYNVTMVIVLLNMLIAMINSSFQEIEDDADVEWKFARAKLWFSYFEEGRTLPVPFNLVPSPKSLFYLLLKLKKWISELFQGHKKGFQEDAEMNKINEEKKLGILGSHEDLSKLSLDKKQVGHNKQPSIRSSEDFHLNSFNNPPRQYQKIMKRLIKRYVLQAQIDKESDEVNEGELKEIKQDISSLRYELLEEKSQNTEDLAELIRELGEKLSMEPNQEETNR
Assay: TRPC6 calcium flux assay (FLIPR, OAG-stimulated calcium influx)
Format: cell-based
Conditions: HEK293 cells stably transfected with human TRPC6, read-out: hTRPC6 Potency
In short: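 IC50 derived by plotting background-corrected peak fluorescence (180 s window, normalized to OAG-triggered signal vs buffer) against dose. Stable human TRPC6 HEK293 line was dye-loaded, exposed to compound 25 min, then challenged with 50 uM final OAG in 2 mM Ca2+ HEPES buffer pH 7.2, 0.5% DMSO.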

IC50 [nM]	SMILES
> 3750	CN(CC(F)(F)F)C(=O)Cn1c(N2CCC(F)(CN)C2)nc2cc(F)ccc21 (stereo not shown) [Example 487, 2-(2-(3-(aminomethyl)-3-fluoropyrrolidin-1-yl)-5-fluoro-1H-benzo[d]imidazol-1-yl)-N-methyl-N-(2,2,2-trifluoroethyl)acetamide]
14.3	N[C@@H]1CN(c2nc3cc(F)c(F)cc3n2CC(=O)N2C[C@H]3C[C@H]3C2)CC[C@H]1F [Example 607, 2-(2-((3R,4R)-3-amino-4-fluoropiperidin-1-yl)-5,6-difluoro-1H-benzo[d]imidazol-1-yl)-1-((1R,5S)-3-azabicyclo[3.1.0]hexan-3-yl)ethanone]
14.9	C[C@H]1CCN(c2nc3ccccc3n2Cc2ccc(C#N)cc2)C[C@H]1N [Example 180, 4-((2-((3S,4S)-3-amino-4-methylpiperidin-1-yl)-1H-benzo[d]imidazol-1-yl)methyl)benzonitrile 2,2,2-trifluoroacetate]
256	N[C@@H]1CN(c2nc3cc(F)c(F)cc3n2Cc2ccc(OC(F)(F)F)cc2)CC[C@H]1F [Example 362, (3R,4R)-1-(5,6-difluoro-1-(4-(trifluoromethoxy)benzyl)-1H-benzimidazol-2-yl)-4-fluoro-3-piperidinamine]
78.9	CN(CCC(F)(F)F)C(=O)Cn1c(N2CC[C@@H](F)[C@H](N)C2)nc2cc(F)c(F)cc21 [Example 622, -(2-((3R,4R)-3-amino-4-fluoropiperidin-1-yl)-5,6-difluoro-1H-benzo[d]imidazol-1-yl)-N-methyl-N-(3,3,3-trifluoropropyl)acetamide]
0.469	N#Cc1ccc(Cn2c(N3CC[C@@H](F)[C@H](N)C3)nc3c(Cl)cc(Cl)cc32)nc1 [Example 58, 6-((2-((3R,4R)-3-amino-4-fluoropiperidin-1-yl)-4,6-dichloro-1H-benzo[d]imidazol-1-yl)methyl)nicotinonitrile]
1.07	N#Cc1ccc(Cl)cc1Cn1c(N2CC[C@@H](F)[C@H](N)C2)nc2cc(F)c(F)cc21 [Example 347, 2-((2-((3R,4R)-3-amino-4-fluoro-1-piperidinyl)-5,6-difluoro-1H-benzimidazol-1-yl)methyl)-4-chlorobenzonitrile]
37	N[C@@H]1CN(c2nc3cc(F)c(F)cc3n2Cc2ccc(F)cc2Cl)CC[C@H]1F [Example 355, (3R,4R)-1-(1-(2-chloro-4-fluorobenzyl)-5,6-difluoro-1H-benzimidazol-2-yl)-4-fluoro-3-piperidinamine]
43.8	N#Cc1ccc(Cn2c(N3CC[C@@H](F)[C@H](N)C3)nc3cc(Cl)cnc32)nc1 [Example 92, 6-((2-((3R,4R)-3-amino-4-fluoropiperidin-1-yl)-6-chloro-3H-imidazo[4,5-b]pyridin-3-yl)methyl)nicotinonitrile]
0.447	COc1ccc2nc(N3CCC(F)(F)[C@H](N)C3)n(Cc3ccc(C#N)cc3)c2c1 [Example 406, (R)-4-((2-(3-amino-4,4-difluoropiperidin-1-yl)-6-methoxy-1H-benzo[d]imidazol-1-yl)methyl)benzonitrile]
18.3	CC(c1ccccn1)N(C)C(=O)Cn1c(N2CC[C@@H](F)[C@H](N)C2)nc2cc(F)c(F)cc21 (mixture of isomers) [Example 608, 2-(2-((3R,4R)-3-amino-4-fluoropiperidin-1-yl)-5,6-difluoro-1H-benzo[d]imidazol-1-yl)-N-methyl-N-(1-(pyridin-2-yl)ethyl)acetamide]
4440	CC(F)(F)c1ccc(Cn2c(N3CCC[C@@H](N)C3)nc3ccccc32)cc1 [Example 379, (R)-1-(1-(4-(1,1-difluoroethyl)benzyl)-1H-benzo[d]imidazol-2-yl)piperidin-3-amine]
12	C[C@@H](c1ccc(C#N)cc1)n1c(N2CC[C@@H](F)[C@H](N)C2)nc2ccccc21 [Example 320, 4-((S)-1-(2-((3R,4R)-3-amino-4-fluoropiperidin-1-yl)-1H-benzo[d]imidazol-1-yl)ethyl)benzonitrile hydrochloride]
0.286	Cc1cc2c(cc1Cl)nc(N1CC[C@@H](F)[C@H](N)C1)n2Cc1ccc(C#N)cn1 [Example 113, 6-((2-((3R,4R)-3-amino-4-fluoro-1-piperidinyl)-5-chloro-6-methyl-1H-benzimidazol-1-yl)methyl)-3-pyridinecarbonitrile]
272	N#Cc1ccc(Cn2c(N3CCC(F)(F)[C@H](N)C3)nc3cc(F)cc(F)c32)nc1 [Example 67, (R)-6-((2-(3-amino-4,4-difluoropiperidin-1-yl)-5,7-difluoro-1H-benzo[d]imidazol-1-yl)methyl)nicotinonitrile]
562	N[C@@H]1CN(c2nc3cc(Cl)ccc3n2CC(=O)N2CCC2)CC[C@H]1F [Example 286, 2-(2-((3R,4R)-3-amino-4-fluoro-1-piperidinyl)-5-chloro-1H-benzimidazol-1-yl)-1-(1-azetidinyl)ethanone]
0.319	N#Cc1cnc(Cn2c(N3CC[C@@H](F)[C@H](N)C3)nc3ccc(F)cc32)nc1 [Example 442, 2-((2-((3R,4R)-3-amino-4-fluoropiperidin-1-yl)-6-fluoro-1H-benzo[d]imidazol-1-yl)methyl)pyrimidine-5-carbonitrile]
13.5	C[C@]1(N)CCCN(c2nc3ccccc3n2Cc2ccc(C#N)cn2)C1 [Example 141, 6-((2-((3S)-3-amino-3-methyl-1-piperidinyl)-1H-benzimidazol-1-yl)methyl)-3-pyridinecarbonitrile]
5.56	CN(CC(F)F)C(=O)Cn1c(N2CC[C@@H](F)[C@H](N)C2)nc2cc(F)c(F)cc21 [Example 601, 2-(2-((3R,4R)-3-amino-4-fluoropiperidin-1-yl)-5,6-difluoro-1H-benzo[d]imidazol-1-yl)-N-(2,2-difluoroethyl)-N-methylacetamide]
39.3	N[C@@H]1CN(c2nc3cc(F)c(F)cc3n2CC(=O)N2CCCC(C(F)(F)F)C2)CC[C@H]1F (mixture of isomers) [Example 504, 2-(2-((3R,4R)-3-amino-4-fluoropiperidin-1-yl)-5,6-difluoro-1H-benzo[d]imidazol-1-yl)-1-(3-(trifluoromethyl)piperidin-1-yl)ethan-1-one]
256	N#Cc1ccc2c(c1)nc(N1CC[C@@H](F)[C@H](N)C1)n2Cc1ncc(F)cn1 [Example 197, 2-((3R,4R)-3-amino-4-fluoropiperidin-1-yl)-1-((5-fluoropyrimidin-2-yl)methyl)-1H-benzo[d]imidazole-5-carbonitrile]
> 3750	N[C@@H]1CN(c2nc3cc(F)c(F)cc3n2CC(=O)N2CCN(C(=O)C3CC3)CC2)CC[C@H]1F [Example 531, 2-(2-((3R,4R)-3-amino-4-fluoropiperidin-1-yl)-5,6-difluoro-1H-benzo[d]imidazol-1-yl)-1-(4-(cyclopropanecarbonyl)piperazin-1-yl)ethan-1-one]
8.76	N#Cc1cnc(Cn2c(N3CC[C@@H](F)[C@H](N)C3)nc3cc(F)cc(F)c32)cn1 [Example 252, 5-((2-((3R,4R)-3-amino-4-fluoro-1-piperidinyl)-5,7-difluoro-1H-benzimidazol-1-yl)methyl)-2-pyrazinecarbonitrile]
326	N#Cc1ccc(Cn2c(N3CC[C@H](CN)C3)nc3ccccc32)cc1 [Example 179, (R)-4-((2-(3-(aminomethyl)pyrrolidin-1-yl)-1H-benzo[d]imidazol-1-yl)methyl)benzonitrile]
3	N[C@@H]1CN(c2nc3ccc(F)cc3n2Cc2ncc(Cl)cn2)CC[C@H]1O [Example 205, (3R,4R)-3-amino-1-(1-((5-chloropyrimidin-2-yl)methyl)-6-fluoro-1H-benzo[d]imidazol-2-yl)piperidin-4-ol]
2.32	N#Cc1ccc(Cn2c(N3CCC[C@H](N)C3)nc3ccccc32)nc1 [Example 70, (S)-6-((2-(3-aminopiperidin-1-yl)-1H-benzo[d]imidazol-1-yl)methyl)nicotinonitrile]
232	N#Cc1cccc(Cn2c(N3CC[C@@H](F)[C@H](N)C3)nc3cc(F)c(F)cc32)c1 [Example 366, 3-((2-((3R,4R)-3-amino-4-fluoro-1-piperidinyl)-5,6-difluoro-1H-benzimidazol-1-yl)methyl)benzonitrile]
2740	CO[C@@H]1CCN(c2nc3cc(F)ccc3n2CC(=O)N(C)CC(F)(F)F)C[C@H]1N [Example 483, 2-(2-((3R,4R)-3-amino-4-methoxypiperidin-1-yl)-5-fluoro-1H-benzo[d]imidazol-1-yl)-N-methyl-N-(2,2,2-trifluoroethyl)acetamide]
